Measurements taken from EP0106486A2, “Improvements in or relating to novel octahydrobenz(f)isoquinolines” (ELI LILLY AND COMPANY, priority 1982, dated 1984).
Counter-ions that a name gives are not always drawn. Like-named read-outs stand apart in the source and are kept apart here.

Tested on: Cox standard strain albino male mice
Experiment: mouse writhing assay (acetic acid-induced writhing)
Type: in vivo
Details: dose required to inhibit induced writhing by fifty percent, 5 mice per group
Text: The analgesic activity of a number of compounds provided by this invention has been determined in the standard rat-tail jerk assay and the mouse writhing assay. Writhing, characterized by contraction of the abdominal musculature, extension of the hind- legs, and rotation of the trunk, was induced in Cox standard strain albino male mice. The mice, weighing 18-24 grams, were fasted overnight and given the test compound by gavage in an acacia suspension (5%) sixty minutes before writhing was induced by the intraperitoneal administration of acetic acid (0.60 percent). Each treatment group consisted of 5 mice. The total number of writhes for the treatment group was determined during a 10-minute observation starting 5 minutes after acetic acid administration. […] The results in the mouse writhing assay are presented as the effective dose in mg./kg. of the tested compound required to inhibit induced writhing in the test animals by fifty percent (ED50). Results are presented in Column II for both subcutaneous (s.c.) and oral (p.o.) administration of the test compound as compared to the reference compound meperidine.

[1] = 1 h, oral (p.o.) administration, acacia suspension (5%), sixty minutes before i.p. acetic acid (0.60 percent), read-out: Mouse Writhing ED50 p.o.
[2] = sc, subcutaneous (s.c.) administration, writhing induced by i.p. acetic acid (0.60 percent), read-out: Mouse Writhing ED50 s.c.

CCC[C@]12CCNC[C@H]1CCc1ccc(O)cc12 (relative stereo) [Example 11, cis-1,2,3,4,4a,5,6,10b-octahydro-10b-propylbenz[f]isoquinolin-9-ol]
ED50 [1]: > 80 mg/kg
ED50 [2]: 62 mg/kg

COc1ccc2c(c1)[C@]1(C)CCN(C)C[C@@H]1CC2 [Example 1, cis-1,2,3,4,4a,5,6,lOb-octahydro-3,lOb-dimethyl-9-methoxybenz[f]isoquinoline hydrochloride]
ED50 [1]: 15 mg/kg
ED50 [2]: 10 mg/kg

CCC[C@@]12CCN(C)C[C@@H]1CCc1ccc(O)cc12 [Example 4, cis-1,2,3,4,4a,5,6,1Ob-octahydro-3-methyl-10b-propylbenz[f]isoquinolin-9-ol hydrochloride]
ED50 [1]: 13 mg/kg
ED50 [2]: 4.5 mg/kg

C[C@@]12CCNC[C@@H]1CCc1ccc(O)cc12 [Example 7, cis-l,2,3,4,4a,5,6,10b-octahydro-10b-methylbenz[f]isoquinolin-9-ol]
ED50 [1]: > 80 mg/kg
ED50 [2]: 80 mg/kg

C[C@@]12CCN(CCc3ccccc3)C[C@@H]1CCc1ccc(O)cc12 (relative stereo) [Example 10, cis-1,2,3,4,4a,5,6,10b-octahydro-3-(2-phenylethyl)-10b-methylbenz[f]isoquinolin-9-ol]
ED50 [1]: 38.2 mg/kg
ED50 [2]: 5.2 mg/kg

CCC[C@]12CCN(CCc3ccccc3)C[C@H]1CCc1ccc(O)cc12 (relative stereo) [Example 14, cis-1,2,3,4,4a,5,6,10b-octahydro-3-(2-phenylethyl)-10b-propylbenz[f]isoquinolin-9-ol]
ED50 [1]: > 80 mg/kg
ED50 [2]: 78 mg/kg

CN1CC[C@]2(C)c3cc(O)ccc3CC[C@@H]2C1 (relative stereo) [Example 3, cis-1,2,3,4,4a,5,6,10b-octahydro-3,10b-di-methylbenz[f]isoquinolin-9-ol]
ED50 [1]: 7.2 mg/kg
ED50 [2]: 2.3 mg/kg

C[C@]12CCN(CC3CC3)C[C@H]1CCc1ccc(O)cc12 (relative stereo) [Example 9, cis-1,2,3,4,4a,5,6,10b-octahydro-3-(cyclopropylmethyl)-10b-methylbenz[f]isoquinolin-9-ol]
ED50 [1]: > 80 mg/kg
ED50 [2]: 32 mg/kg

CCC[C@]12CCN(C)C[C@H]1CCc1ccc(OC)cc12.Cl (relative stereo) [Example 2, cis-1,2,3,4,4a,5,6,10b-octahydro-3-methyl-9-methoxy-10b-propylbenz[f]isoquinoline hydrochloride]
ED50 [1]: 11 mg/kg
ED50 [2]: 10 mg/kg

COc1ccc2c(c1)[C@]1(C)CCNC[C@@H]1CC2 [Example 5, cis-1,2,3,4,4a,5,6,10b-octahydro-9-methoxy-LOb-methylbenz[f]isoquinoline hydrochloride]
ED50 [1]: 80 mg/kg
ED50 [2]: 62 mg/kg

C=CCN1CC[C@]2(C)c3cc(O)ccc3CC[C@@H]2C1 (relative stereo) [Example 8, cis-1,2,3,4,4a,5,6,10b-octahydro-3-(2-propenyl)-10b-methylbenz[f]isoquinolin-9-ol]
ED50 [1]: > 80 mg/kg
ED50 [2]: 15 mg/kg

CCOC(=O)C1(c2ccccc2)CCN(C)CC1 [Meperidine, reference compound]
ED50 [1]: 21 mg/kg
ED50 [2]: 2.8 mg/kg

C=CCN1CC[C@]2(CCC)c3cc(O)ccc3CC[C@@H]2C1 (relative stereo) [Example 12, cis-1,2,3,4,4a,5,6,10b-octahydro-3-(2-propenyl)-10b-propylbenz[f]isoquinolin-9-ol]
ED50 [1]: 45 mg/kg
ED50 [2]: 12 mg/kg

CCC[C@]12CCNC[C@H]1CCc1ccc(OC)cc12.Cl (relative stereo) [Example 6, cis-1,2,3,4,4a,5,6,10b-octahydro-9-methoxy-10b-propylbenz[f]isoquinoline hydrochloride]
ED50 [1]: > 80 mg/kg
ED50 [2]: > 80 mg/kg

CCC[C@]12CCN(CC3CC3)C[C@H]1CCc1ccc(O)cc12 (relative stereo) [Example 13, cis-1,2,3,4,4a,5,6,10b-octahydro-3-cyclopropylmethyl-10b-propylbenz[f]isoquinolin-9-ol]
ED50 [1]: 73 mg/kg
ED50 [2]: 34 mg/kg
